Data taken from patent US11058680B2, “Combinations of opioid/TLR4 antagonists and acetaminophen for use in the treatment of emotional pain and insomnia” (Allodynic Threapeutics, LLC, priority 2016, dated 2021).

Tests used:
[1] = test system: patient with emotional pain due to adjustment disorder, grieving passing of a pet; assay: Example 2 case study, emotional pain diary on 4-point scale (0=none, 1=mild, 2=moderate, 3=severe); format: in vivo, human; conditions: xanax before study treatment
Source text: The patient experienced a stressful life event (bereavement) that interfered with social functioning. […] The emotional pain intensity was rated on a 4-point unipolar scale (0=none, 1=mild, 2=moderate, 3=severe).

[2] = test system: patient with chronic low back pain, tendinitis and fear from a near airplane crash; assay: Example 5 case study; format: in vivo, human; conditions: acetaminophen and ibuprofen prior to study; naltrexone 2.25 mg and acetaminophen 325 mg Q.I.D
[3] = test system: patient with lower back and leg pain and emotional pain due to separation from a child; assay: Example 12 case study, patient diary; conditions: for API, average pain intensity (0-10 NRS) / Insomnia (0-10 NRS) / PRSI, Pain Related Sleep Interference (0-10 NRS) / WEP, Worst Emotional Pain (0-10 NRS) / WPI, Worst Pain Intensity (0-10 NRS): Ibuprofen 800 mg T.I.D. PRN 2006-2010
[4] = test system: patients with low back pain (LBP); assay: Naltrexone/acetaminophen open-label pilot study for low back pain, daily patient diary (WPI, API, WEP, PRSI, insomnia, PGIC, energy, activity); format: in vivo, human
Procedure: Twenty patients of whom 16 had chronic low back pain (CLBP), three had acute LBP and one had pain due to Temporomandibular disorders (TMD) were evaluated in an open label pilot study. […] The patient reported diary questionnaire included the following questions.
Question No. 1: Choose one number that best describes the “Worst Pain” in your lower back in the last 24 hours (WPI) [measured on an 11-point NRS (0=no pain, 10=worst pain possible)].
Question No. 2: Choose one number that best describes the “Average Pain” in your lower back in the last 24 hours (API) [measured on an 11-point NRS (0=no pain, 10=worst pain possible)].
Question No. 3: Choose one number that best describes the “Worst Emotional Pain” you experienced in the last 24 hours. (E.g., “Today, I experienced hurt feelings, and/or anger, and/or fear, and/or sadness”).
Question No. 4: Choose one number that best describes how pain has interfered with your sleep in the last 24 hours [Pain Related Sleep Interference (PRSI) measured on an 11-point NRS (0=no interference, 10=complete interference)].
Question No. 5: Have you experienced difficulty sleeping or falling asleep (insomnia) in the last 24 hours [measured on an 11-point NRS (0=no insomnia, 10=worst insomnia possible)].

[5] = test system: patient with emotional pain due to football team losses and low back pain; assay: Example 4 case study, patient diary; format: in vivo, human
[6] = test system: patient with emotional pain due to severe pain caused by acute spinal disk herniation; assay: Example 6 case study, patient diary; format: in vivo, human
Procedure: They scheduled an elective inguinal hernia surgery during a time that they had already planned time off from work for their spouse and themself. […] The day after the incident, they took acetaminophen 3000 mg. […] They were in the process of purchasing a home, which they found stressful.

[7] = test system: patient with lower back pain and emotional pain due to conflict at work; assay: Example 7 case study; format: in vivo, human; conditions: acetaminophen 4 times, one day, naltrexone 2.25 mg and Tylenol 325 mg twice daily
[8] = test system: patient with lower back pain and emotional pain due to anger with poorly-performing employees; assay: Example 10 case study, patient diary; format: in vivo, human
Source text: A person building contractor with a history of lower back pain reported emotional pain due to frustration with their three employees' poor job performance. […] Treatment with naltrexone and acetaminophen eliminated their physical, as well as their emotional pain, which happened overnight.

[9] = test system: patient with emotional pain due to relationship break-up; assay: Example 11 case study, patient diary; format: in vivo, human; conditions: APAP 325 mg Q.I.D., Sep. 25-Oct. 2, 2015
[10] = test system: migraine; conditions: literature, Brandes et al. JAMA 2007; cited from earlier work
[11] = Naltrexone 2.25 mg Q.I.D./Clonidine 0.025 mg Q.I.D. 2010-2015, APAP 325 mg Q.I.D. Jun. 29-Jul. 6, 2015, Naltrexone 2.5 mg Q.I.D. to Jul. 8, 2015, Naltrexone 2.25 mg/APAP 325 mg Q.I.D. Jul. 9-Oct. 4, 2015
[12] = on treatment, last day, APAP 325 mg alone (N = 8, avg 9.83 days), NTX/APAP 2.25/325 mg (n = 18, avg 25.4 days)
[13] = treatment period, APAP 325 mg alone, NTX/APAP 2.25/325 mg
[14] = APAP 325 mg Q.I.D. Jun. 29-Jul. 8, 2015, NTX 2.25 mg/APAP 325 mg Q.I.D. Jul. 9-Aug. 9, 2015
[15] = APAP 325 mg Q.I.D., NTX 2.25 mg/APAP 325 mg Q.I.D.
[16] = APAP 1000 mg TID, Aug. 18-19, 2015
[17] = acetaminophen 3000 mg, the day after the incident
[18] = APAP 325 mg Q.I.D., Sep. 29-Oct. 1, 2015
[19] = acetaminophen for three days, naltrexone and acetaminophen, overnight

## Cc1nnc2n1-c1ccc(Cl)cc1C(c1ccccc1)=NC2 [xanax]
[1]
  relief of emotional pain (patient report): did not help

## CC(C)Cc1ccc(C(C)C(=O)O)cc1 (stereo not shown) [Ibuprofen]
[2]
  relief of physical pain (low back, foot): without significant relief
[3]; [11]
  API, average pain intensity (0-10 NRS): 5.5
  Insomnia (0-10 NRS): 9
  PRSI, Pain Related Sleep Interference (0-10 NRS): 7
  WEP, Worst Emotional Pain (0-10 NRS): 7
  WPI, Worst Pain Intensity (0-10 NRS): 6

## CC(=O)Nc1ccc(O)cc1 [acetaminophen]
[4]; [12]
  API Avg., average pain intensity (0-10 NRS): 4.25
  Activity Avg., change in activity level (1-7 Likert): 4.67
  Energy Avg., change in energy level (1-7 Likert): 4.67
  Insomnia Avg. (0-10 NRS): 4.33
  PGIC Avg., Patient Global Impression of Change (1-7 Likert, 7 = very much improved): 5.00
  PRSI Avg., Pain Related Sleep Interference (0-10 NRS): 4.00
  WEP Avg., Worst Emotional Pain (0-10 NRS): 5.17
  WPI Avg., Worst Pain Intensity (0-10 NRS): 5.25
[4]; [13]
  Mean Improvement from Baseline, API (0-10 NRS): 1.28
  Mean Improvement from Baseline, Insomnia (0-10 NRS): −0.23
  Mean Improvement from Baseline, PRSI (0-10 NRS): 0.90
  Mean Improvement from Baseline, WEP (0-10 NRS): 0.14
  Mean Improvement from Baseline, WPI (0-10 NRS): 1.43
[5]; [14]
  API, average pain intensity (0-10 NRS): 3
  Insomnia (0-10 NRS): 0
  PRSI, Pain Related Sleep Interference (0-10 NRS): 0
  WEP, Worst Emotional Pain (0-10 NRS): 2
  WPI, Worst Pain Intensity (0-10 NRS): 3
[5]; [15]
  Improvement from baseline, API: 25%
  Improvement from baseline, WEP: 33%
  Improvement from baseline, WPI: 40%
[5]; Tylenol 325 mg, 4 times daily for 10 days
  ability to handle emotional disturbance due to team losses: did not report improvement
[5]; naltrexone and acetaminophen for one month, acetaminophen alone
  elimination/reduction of emotional and physical pain symptoms: 25%-40%
[2]
  relief of physical pain (low back, foot): without significant relief
[6]; [16]
  API, average pain intensity (0-10 NRS): 8
  Insomnia (0-10 NRS): 9
  PGIC (1-7 Likert): 5
  PRSI, Pain Related Sleep Interference (0-10 NRS): 9
  WEP, Worst Emotional Pain (0-10 NRS): 6
  WPI, Worst Pain Intensity (0-10 NRS): 9
[6]; [17]
  emotional pain (NRS): 6 /10
  insomnia improved by: 1 point
  pain level improved by: 1 point
[7]
  emotional pain (patient report): did not notice a change
[7]; within three days
  back pain (patient report): slight improvement
[8]; [18]
  API, average pain intensity (0-10 NRS): 2.5
  Insomnia (0-10 NRS): 2
  PGIC (1-7 Likert): 5
  PRSI, Pain Related Sleep Interference (0-10 NRS): 4
  WEP, Worst Emotional Pain (0-10 NRS): 3
  WPI, Worst Pain Intensity (0-10 NRS): 4
[8]; [19]
  back/physical pain (patient report): improved their back pain
  emotional pain (patient report): remained unchanged
[9]
  API, average pain intensity (0-10 NRS): 5
  Insomnia (0-10 NRS): 10
  PGIC (1-7 Likert): 5
  PRSI, Pain Related Sleep Interference (0-10 NRS): 3.5
  WEP, Worst Emotional Pain (0-10 NRS): 10
  WPI, Worst Pain Intensity (0-10 NRS): 7
[3]; [11]
  API, average pain intensity (0-10 NRS): 3.5
  Insomnia (0-10 NRS): 5.5
  PRSI, Pain Related Sleep Interference (0-10 NRS): 4.5
  WEP, Worst Emotional Pain (0-10 NRS): 5.0
  WPI, Worst Pain Intensity (0-10 NRS): 4.5
  PGIC (1-7 Likert): 5
[3]; naltrexone/clonidine, acetaminophen 325 mg four times daily 5 days, naltrexone alone 12 days, naltrexone 2.25 mg and acetaminophen 325 mg four times daily almost three months
  emotional pain due to separation from child (patient report): same level of emotional pain

## CNS(=O)(=O)Cc1ccc2[nH]cc(CCN(C)C)c2c1 [sumatriptan]
[10]
  2-hour headache (migraine) pain-free: 25%
